Reference: patent US5480902A, “Thienylpyrrole fungicidal agents” (American Cyanamid Company, priority 1993, dated 1996)

Experiments:
[1] = test system: Pseudocercosporella herpotrichoides; test: In vitro fungicidal activity, growth inhibition of ground fungal mycelia (PSDCHE); assay type: cell-based; details: Oculimacula yallundae, 3-4 days at 21° C., averaged when more than one test, read-out: Growth inhibition rating, PSDCHE (converted)
Procedure: (§1) Test compounds are dissolved or suspended in acetone and dispersed into cell well plates containing a suspension of ground fungal mycelia in a nutrient broth. Assay plates are incubated for 3-4 days at 21° C. Growth inhibition is measured visually and is rated using the following scale:
(§2) Assay fungi include the plant pathogens, Pythium ultimum (Pythul); Rhizoctonia solani (Rhizso); Fusarium oxysporum f. sp. cucumerinum (Fusoxc); and Pseudocercosporella herpotrichoides (Psdche).
(§3) When more than one test is run, the data are averaged.

Cercospora beticola = test: In vivo fungicidal activity on host plants, Sugar Beet Cercospora (SBC); details: 400 ppm; sprayed on host plants before inoculation; further: ranges in brackets are in %
Rhizoctonia solani = test: In vitro fungicidal activity, growth inhibition of ground fungal mycelia (RHIZSO); assay type: cell-based; details: 3-4 days at 21° C., averaged when more than one test, read-out: Growth inhibition rating, RHIZSO
Procedure: as §1, §2, §3

Botrytis cinerea = test: In vivo fungicidal activity on host plants, Pepper Botrytis (PB); details: 400 ppm; sprayed on host plants before inoculation
[2] = test system: Erysiphe graminis f. sp. tritici; test: In vivo fungicidal activity on host plants, Wheat Powdery Mildew (WPM); details: 400 ppm; sprayed on host plants before inoculation
[3] = test system: Puccinia recondita f. sp. tritici; test: In vivo fungicidal activity on host plants, Wheat Leaf Rust (WLR); details: 400 ppm; sprayed on host plants before inoculation
Pythium ultimum = test: In vitro fungicidal activity, growth inhibition of ground fungal mycelia (PYTHUL); assay type: cell-based; details: Globisporangium ultimum, 3-4 days at 21° C., averaged when more than one test, read-out: Growth inhibition rating, PYTHUL (converted)
Procedure: as §1, §2, §3

Venturia inaegualis = test: In vivo fungicidal activity on host plants, Apple Scab (AS); details: 400 ppm; sprayed on host plants before inoculation
Pyricularia oryzae = assay type: in vivo; details: 400 ppm; sprayed on host plants before inoculation
Plasmopara viticola = test: In vivo fungicidal activity on host plants, Grape Downy Mildew (GDM); details: 400 ppm; sprayed on host plants before inoculation
[4] = test system: Fusarium oxysporum f. sp. cucumerinum; test: In vitro fungicidal activity, growth inhibition of ground fungal mycelia (FUSOXC); assay type: cell-based; details: 25 ppm, 3-4 days at 21° C., averaged when more than one test, read-out: Growth inhibition rating, FUSOXC
Procedure: as §1, §2, §3

Compound | inhibition at 25 ppm [1] | Disease control rating, SBC (Cercospora beticola) | inhibition at 25 ppm (Rhizoctonia solani) | Disease control rating, PB (Botrytis cinerea) | Disease control rating, WPM [2] | Disease control rating, WLR [3] | inhibition at 25 ppm (Pythium ultimum) | Disease control rating, AS (Venturia inaegualis) | Disease control rating, RB (Pyricularia oryzae) | Disease control rating, GDM (Plasmopara viticola) | inhibition at 25 ppm [4]
N#Cc1c(-c2oc3ccccc3c2Cl)[nH]c(Cl)c1Cl [Compound 1, 4,5-Dichloro-2-(3-chloro-2-benzofuranyl)pyrrole-3-carbonitrile] | 1 to 29% | 0 (0) | 1 to 29% | 2 (15-29) | 0 (0) | 2 (15-29) | 1 to 29% | 0 (0) | 4 (45-59) |  | 
FC(F)(F)c1[nH]c(-c2ccc(Cl)cc2)cc1-c1ccco1 [Compound 4, 5-(p-Chlorophenyl)-3-(2-furyl)-2-(trifluoromethyl)pyrrole] | 100% | 0 (0) |  | 0 (0) | 0 (0) | 6 (75-89) | 60 to 89% | 2 (15-29) | 1 (1-14) | 8 (96-99) | 
N#Cc1cc(-c2ccc(Cl)s2)[nH]c1Cl [Compound 6, 2-Chloro-5-(5-chloro-2-thienyl)pyrrole-3-carbonitrile] | 60 to 89% | 6 (75-89) | 60 to 89% | 0 (0) | 0 (0) | 6 (75-89) |  | 9 (100) | 0 (0) | 7 (90-95) | 
N#Cc1c(Cl)[nH]c(-c2ccc(Cl)s2)c1Br [Compound 7, 4-Bromo-2-chloro-5-(5-chloro-2-thienyl)pyrrole-3-carbonitrile] |  | 0 (0) | 60 to 89% | 0 (0) | 0 (0) | 7 (90-95) |  | 8 (96-99) | 0 (0) | 0 (0) | 0%
FC(F)(F)c1[nH]c(-c2ccc(Cl)cc2)cc1-c1csc(Br)c1 [Compound 9, 3-(5-Bromo-3-thienyl)-5-(p-chlorophenyl)-2-(trifluoromethyl)pyrrole] | 0% | 0 (0) | 60 to 89% | 0 (0) | 0 (0) | 0 (0) | 0% | 0 (0) | 0 (0) | 6 (75-89) | 0%
